Drawing on patent publication US20080058297A1, “Heterocyclic Compounds For Preventing And Treating Disorders Associated With Excessive Bone Loss” (Synta Pharmaceuticals Corp., priority 2003, published 2008), this text covers IC50 and CC50 for 15 compounds.

Like-named read-outs stand apart in the source and are kept apart here. Bounds are passed on as bounds.

Data set [1] relates to Human peripheral blood mononuclear cells (PBMC). Put plainly: Inhibition of osteoclast formation (RANKL/M-CSF induced, TRAP staining). The data set is classed as cell-based. As for the experimental part: (§1) Human peripheral blood mononuclear cells (PBMC) were isolated from healthy donor blood. The cells were seeded in multi-well plates at 7.5×10^5 cells/ml in RPMI 1640 medium including 10% FBS. Osteoclast formation was induced with 20 ng/ml of recombinant human receptor activator of NF-kB-ligand (RANKL) and 10 ng/ml of human M-CSF in the presence of various doses of test compounds. After 48 hours of culture, RANKL and M-CSF was replenished and further cultured for 2 days. Then, the cultured cells were stained for tartrate-resistant acid phosphatase (TRAP). Osteoclasts were identified as TRAP-positive cells with more than 3 nuclei. Total cell viability was assessed by CCK-8 assay (Dojindo, Gaithersburg, Md.) with 24 hour incubation.
as §1, with “Isolated” for “isolated”

The nature of data set [2]: Total cell viability by CCK-8 assay. The data set is classed as cell-based. The following applies: human. As for the experimental part:
as §1
as §1, with “Isolated” for “isolated”
(In general: Formazan colour is commonly taken as a measure of viable cells.)

[3] abbreviates: 96 h, read-out: IC50 (compound concentration required for 50% inhibition of osteoclast formation), Table 1, 20 ng/ml RANKL + 10 ng/ml M-CSF, TRAP-positive cells with more than 3 nuclei.
Where [4] appears, read: 96 h, read-out: IC50 (compound concentration required for 50% inhibition of osteoclast formation), Table 2, 20 ng/ml RANKL + 10 ng/ml M-CSF, TRAP-positive cells with more than 3 nuclei.
Setting [5] is: 96 h, read-out: IC50 (compound concentration required for 50% inhibition of osteoclast formation), Table 3, 20 ng/ml RANKL + 10 ng/ml M-CSF, TRAP-positive cells with more than 3 nuclei.

In the case of `C[C@]12CC[C@@H]3c4ccc(O)cc4CC[C@H]3[C@@H]1CC[C@@H]2O` [17β-estradiol, reference compound], the IC50 in data set [1] (read-out: IC50 (compound concentration required for 50% inhibition of osteoclast formation), Table 1, 20 ng/ml RANKL + 10 ng/ml M-CSF, TRAP-positive cells with more than 3 nuclei) is 78 nM; in data set [1] (read-out: IC50 (compound concentration required for 50% inhibition of osteoclast formation), Table 2, 20 ng/ml RANKL + 10 ng/ml M-CSF, TRAP-positive cells with more than 3 nuclei), 78 nM; in data set [1] (read-out: IC50 (compound concentration required for 50% inhibition of osteoclast formation), Table 3, 20 ng/ml RANKL + 10 ng/ml M-CSF, TRAP-positive cells with more than 3 nuclei), 78 nM.

With `Cc1cccc(/C=N/Nc2cc(N3CCOCC3)nc(OCCc3ccccn3)n2)c1` [Compound 12, N-(3-methyl-benzylidene)-N′-[6-morpholin-4-yl-2-(2-pyridin-2-yl-ethoxy)-pyrimidin-4-yl]-hydrazine], the IC50 in data set [1] (setting [3]) was determined as 15 nM. This compound came in with a cytotoxic concentration (CC50) at 24 h in data set [2] (Table 1, 24 hour incubation) of 3250 nM.

Turning to `Cc1cccc(/C=N/Nc2cc(N3CCOCC3)nc(OCCc3cccc[n+]3[O-])n2)c1` [Compound 28, N-(3-methyl-benzylidene)-N′-{6-morpholin-4-yl-2-[2-(1-oxy-pyridin-2-yl)-ethoxy]-pyrimidin-4-yl}-hydrazine], in data set [1] (setting [3]), the IC50 was found to be 70 nM. Further, in data set [2] (Table 1, 24 hour incubation), the CC50 at 24 h is over 1000 nM.

For `Cc1cccc(C=NNc2cc(N3CCOCC3)nc(OCC(O)c3ccccn3)n2)c1` (stereo not shown) [Compound 42, 2-{4-[N′-(3-Methyl-benzylidene)-hydrazino]-6-morpholin-4-yl-pyrimidin-2-yloxy}-1-pyridin-2-yl-ethanol], the IC50 in data set [1] (setting [3]) turned out to be 8 nM. The CC50 at 24 h in data set [2] (Table 1, 24 hour incubation) was over 1000 nM.

With `Cc1cccc(/C=N/Nc2cc(N3CCOCC3)nc(OCCc3ccc(O)cn3)n2)c1` [Compound 43, 6-(2-{4-[N′-(3-Methyl-benzylidene)-hydrazino]-6-morpholin-4-yl-pyrimidin-2-yloxy}-ethyl)-pyridin-3-ol], the IC50 in data set [1] (setting [3]) turned out to be 12 nM. In data set [2] (Table 1, 24 hour incubation), the CC50 at 24 h was over 1000 nM.

Take `OCc1cccc(/C=N/Nc2cc(N3CCOCC3)nc(OCCc3ccc(O)cn3)n2)c1` [Compound 44, 6-(2-{4-[N′-(3-Hydroxymethyl-benzylidene)-hydrazino]-6-morpholin-4-yl-pyrimidin-2-yloxy}-ethyl)-pyridin-3-ol]: the IC50 in data set [1] (setting [3]) amounted to 17 nM. This compound registered a CC50 at 24 h in data set [2] (Table 1, 24 hour incubation) of over 1000 nM.

On to `Cc1[nH]c2ccc(Nc3nc(OCCc4ccccn4)nc(N4CCOCC4)n3)cc2c1C` [Compound 102], for which the IC50 in data set [1] (setting [4]) stood at 3 nM. The CC50 at 24 h in data set [2] (Table 2, 24 hour incubation) was over 1000 nM.

Consider `COc1ccc(CCOc2nc(Nc3ccc4c(c3)oc3ccccc34)nc(N3CCOCC3)n2)cc1OC` [Compound 113, Dibenzofuran-3-yl-{4-[2-(3,4-dimethoxy-phenyl)-ethoxy]-6-morpholin-4-yl-[1,3,5]triazin-2-yl}-amine], for which, in data set [1] (setting [4]), the IC50 was found to be 12 nM. Also, the CC50 at 24 h in data set [2] (Table 2, 24 hour incubation) was over 1000 nM.

In the case of `c1cncc(OCCOc2nc(Nc3ccc4c(c3)oc3ccccc34)nc(N3CCOCC3)n2)c1` [Compound 114, Dibenzofuran-3-yl-{4-morpholin-4-yl-6-[2-(pyridin-3-yloxy)-ethoxy]-[1,3,5]triazin-2-yl}-amine], the IC50 in data set [1] (setting [4]) was found to be 24 nM. The compound further gave a CC50 at 24 h in data set [2] (Table 2, 24 hour incubation) of over 1000 nM.

In the case of `Cc1[nH]c2cc(Nc3nc(OCCOc4cccnc4)nc(N4CCOCC4)n3)ccc2c1C` [Compound 115, (2,3-Dimethyl-1H-indol-6-yl)-{4-morpholin-4-yl-6-[2-(pyridin-3-yloxy)-ethoxy]-[1,3,5]triazin-2-yl}-amine], the IC50 in data set [1] (setting [4]) came to 16 nM. Also, the CC50 at 24 h in data set [2] (Table 2, 24 hour incubation) was over 1000 nM.

Take `C(=NNc1nc(OCCc2ccccn2)nc(N2CCOCC2)n1)c1c[nH]c2ccccc12` [Compound 116, N-(1H-indol-3-ylmethylene)-N′-[4-morpholin-4-yl-6-(2-pyridin-2-yl-ethoxy)-[1,3,5]triazin-2-yl]-hydrazine]: in data set [1] (setting [4]), the IC50 stood at 35 nM. The same compound showed a CC50 at 24 h in data set [2] (Table 2, 24 hour incubation) of over 10000 nM.

`Cc1cccc(Nc2nc3c(N4CCOCC4)nc(OCCOc4ccccn4)nc3[nH]2)c1` [Example 63, {6-morpholin-4-yl-2-[2-(pyridin-2-yloxy)-ethoxy]-9H-purin-8-yl}-m-tolyl-amine]: the IC50 in data set [1] (setting [5]) was determined as 3 nM. The compound also came in with a CC50 at 24 h in data set [2] (Table 3, 24 hour incubation) of over 1000 nM.

Regarding `Cc1cccc(Nc2nc(N3CCOCC3)c3nc(Nc4cccc(C)c4)[nH]c3n2)c1` [Example 79, 6-morpholin-4-yl-N^2,N^8-di-m-tolyl-9H-purine-2,8-diamine], in data set [1] (setting [5]), the IC50 was found to be 9 nM. This compound showed a CC50 at 24 h in data set [2] (Table 3, 24 hour incubation) of over 1000 nM.

As for `Cc1cccc(Nc2nc(N3CCOCC3)c3nc(Nc4cccc(C)c4)n(C)c3n2)c1` [Example 116, 9-Methyl-6-morpholin-4-yl-N^2,N^8-di-m-tolyl-9H-purine-2,8-diamine], the IC50 in data set [1] (setting [5]) amounted to 2 nM. The same compound returned a cytotoxic concentration (CC50) at 24 h in data set [2] (Table 3, 24 hour incubation) of over 1000 nM.

For the compound `COc1ccc(N(C)c2nc(N3CCOCC3)c3nc(Nc4cccc(C)c4)[nH]c3n2)cc1` [Example 117, N^2-(4-Methoxy-phenyl)-N^2-methyl-6-morpholin-4-yl-N^8-m-tolyl-9H-purine-2,8-diamine], the IC50 in data set [1] (setting [5]) is 12 nM. The CC50 at 24 h in data set [2] (Table 3, 24 hour incubation) is over 1000 nM.

The term CC50 denotes the concentration at which the toxic effect on the cells reaches its halfway point. Low values mean harm at low concentration, high ones better tolerance by the cells.
